Test results from patent US20260070945A1, “MACROCYCLIC IMMUNOMODULATORS” (Bristol-Myers Squibb Company, priority 2022, published 2026).
pIC50: −log10 of the molar value. *1 amine or outer side, *2 acyl side, *3 side chain or, on linkers, in order; H or OH if unused. Where a SMILES comes first, the peptide text is derived from it. Bridges are numbered along the chain shown (N, C = ends). [ ]: non-standard residue; d: D form. The star is where a group is joined. ξ: configuration not given here. Phe(4-COOH) = N[C@@H](Cc1ccc(C(=O)O)cc1)C(=O)O; Bip = N[C@@H](Cc1ccc(-c2ccccc2)cc1)C(=O)O; Phe(3-Me) = Cc1cccc(C[C@H](N)C(=O)O)c1; X14 = O=C([C@H](CCCCO)N[*:1])[*:2]; hArg = N=C(N)NCCCC[C@H](N)C(=O)O; Cha = N[C@@H](CC1CCCCC1)C(=O)O; Cit = NC(=O)NCCC[C@H](N)C(=O)O; Ile(3ξ) = CCC(C)[C@H](N)C(=O)O; Thr(3ξ) = CC(O)[C@H](N)C(=O)O; 12Ado = NCCCCCCCCCCCC(=O)O; Carboxymethyl = O=C(O)C*; NMeA = CN[C@@H](C)C(=O)O; Orn = NCCC[C@H](N)C(=O)O; Aun = NCCCCCCCCCCC(=O)O; Dab = NCC[C@H](N)C(=O)O; AEEA = NCCOCCOCC(=O)O

Target: T1, PD-1/PD-L1 interaction (PE-labeled human PD-L1-Ig binding to Jurkat cell line over-expressing human PD-1) (Homo sapiens, UniProt Q15116)
T1 construct: expressed in transfected cells; host or cells: Jurkat
T1 sequence (Q15116 25-288): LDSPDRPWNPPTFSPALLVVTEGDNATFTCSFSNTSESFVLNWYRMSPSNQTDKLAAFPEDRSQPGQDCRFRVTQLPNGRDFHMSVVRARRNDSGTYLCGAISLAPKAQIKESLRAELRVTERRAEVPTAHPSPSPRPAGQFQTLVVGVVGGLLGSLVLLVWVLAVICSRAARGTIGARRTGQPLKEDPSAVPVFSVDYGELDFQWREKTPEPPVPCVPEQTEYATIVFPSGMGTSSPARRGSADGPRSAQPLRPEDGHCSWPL
Experiment: Jurkat-PD-1 Cell Binding High-Content Screening Assay (CBA)
Conditions: Jurkat-hPD-1 cells, PE-labeled PD-L1-Ig 20 nM final; read-out: Jurkat HPD1 PDL1 IC50
How it was run: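 Read-out: high-content imaging of cell-bound PE fluorescence, with Hoechst 33342 nuclear counterstain after paraformaldehyde fixation. Before labeled ligand (20 nM final, 1 h) was added, compound sat on the cells for 2 h at 37 °C in DMEM/10% FCS.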

Compound	pIC50
CC(C)C[C@H]1NC(=O)[C@H](C)N(C)C(=O)[C@H](C(C)C)NC(=O)[C@H](Cc2ccc(-c3ccccc3)cc2)NC(=O)[C@H](C(C)C)NC(=O)[C@H](Cc2c[nH]c3ccccc23)NC(=O)[C@H](CC(=O)O)NC(=O)[C@H](Cc2ccc(OCC(=O)O)cc2)NC(=O)[C@H](C(C)O)NC(=O)CSC[C@@H](C(=O)N[C@H](CC(N)=O)C(=O)NCCOCCOCC(=O)NCCCCCCCCCCCC(=O)O)NC(=O)[C@H](CCCN)NC(=O)[C@H](C(C)C)NC(=O)[C@H](CC2CCCCC2)NC(=O)[C@H](CCN)NC1=O (stereo partly drawn) [Example 2203] ({CH2CO}-[Thr(3ξ)]Y(Carboxymethyl)DWV[Bip]V[NMeA][dL][Dab][Cha]V[Orn]C[dN][AEEA][12Ado]-OH; thioether N-14)	8.02
CC(C)C[C@H]1NC(=O)[C@H](C)N(C)C(=O)[C@H](C(C)C)NC(=O)[C@H](Cc2ccc(-c3ccccc3)cc2)NC(=O)[C@H](C(C)C)NC(=O)[C@H](Cc2c[nH]c3ccccc23)NC(=O)[C@H](CC(=O)O)NC(=O)[C@H](Cc2ccc(OCC(=O)O)cc2)NC(=O)[C@H](CCCNC(=N)N)NC(=O)CSC[C@@H](C(=O)N[C@H](CC(N)=O)C(=O)NCCOCCOCC(=O)NCCCCCCCCCCCC(=O)O)NC(=O)[C@H](CCCCN)NC(=O)[C@H](C(C)C)NC(=O)[C@H](CC2CCCCC2)NC(=O)[C@H](CCN)NC1=O [Example 2204] ({CH2CO}-RY(Carboxymethyl)DWV[Bip]V[NMeA][dL][Dab][Cha]VKC[dN][AEEA][12Ado]-OH; thioether N-14)	7.69
CCC(C)[C@@H]1NC(=O)[C@H](Cc2ccc(-c3ccccc3)cc2)NC(=O)[C@H](CC(C)C)NC(=O)[C@H](Cc2c[nH]c3ccccc23)NC(=O)[C@H](CC(=O)O)NC(=O)[C@H](Cc2ccc(OCC(=O)O)cc2)NC(=O)[C@H](CCCCNC(=N)N)NC(=O)CSC[C@@H](C(=O)N[C@@H](CCN)C(=O)NCCOCCOCC(=O)NCCCCCCCCCCC(=O)O)NC(=O)[C@H](CCCCN)NC(=O)[C@H](C(C)C)NC(=O)[C@H](CC2CCCCC2)NC(=O)[C@H](CCN)NC(=O)[C@H]2CCCN2C(=O)[C@H](C)N(C)C1=O (stereo partly shown) [Example 2206] ({CH2CO}-[hArg]Y(Carboxymethyl)DWL[Bip][Ile(3ξ)][NMeA][dP][Dab][Cha]VKC[Dab][AEEA][Aun]-OH; thioether N-14)	7.08
CC(C)C[C@@H]1NC(=O)[C@H](Cc2c[nH]c3ccccc23)NC(=O)[C@H](CC(=O)O)NC(=O)[C@H](Cc2ccc(C(=O)O)cc2)NC(=O)[C@H](Cc2ccc(OCC(=O)O)cc2)NC(=O)CSC[C@@H](C(=O)N[C@@H](CCN)C(=O)NCCOCCOCC(=O)NCCCCCCCCCCC(=O)O)NC(=O)[C@H](CCCCN)NC(=O)[C@H](C(C)C)NC(=O)[C@H](CC2CCCCC2)NC(=O)[C@H](CCN)NC(=O)[C@@H](C)NC(=O)[C@H](C)N(C)C(=O)[C@H](C(C)C)NC(=O)[C@H](Cc2ccc(-c3ccccc3)cc2)NC1=O [Example 2207] ({CH2CO}-Y(Carboxymethyl)[Phe(4-COOH)]DWL[Bip]V[NMeA][dA][Dab][Cha]VKC[Dab][AEEA][Aun]-OH; thioether N-14)	8.00
CCC(C)[C@@H]1NC(=O)[C@H](Cc2ccc(-c3ccccc3)cc2)NC(=O)[C@H](C(C)C)NC(=O)[C@H](Cc2c[nH]c3ccccc23)NC(=O)[C@H](CC(=O)O)NC(=O)[C@H](Cc2ccc(OCC(=O)O)cc2)NC(=O)[C@H](C(C)O)NC(=O)CSC[C@@H](C(=O)N[C@H](CC(N)=O)C(=O)NCCOCCOCC(=O)NCCCCCCCCCCC(=O)O)NC(=O)[C@H](CCCCN)NC(=O)[C@H](C(C)C)NC(=O)[C@H](CC2CCCCC2)NC(=O)[C@H](CCN)NC(=O)[C@@H](CC(C)C)NC(=O)[C@H](C)N(C)C1=O (stereo partly drawn) [Example 2208] ({CH2CO}-[Thr(3ξ)]Y(Carboxymethyl)DWV[Bip][Ile(3ξ)][NMeA][dL][Dab][Cha]VKC[dN][AEEA][Aun]-OH; thioether N-14)	7.61
CCC(C)[C@@H]1NC(=O)[C@H](Cc2ccc(-c3ccccc3)cc2)NC(=O)[C@H](C(C)C)NC(=O)[C@H](Cc2c[nH]c3ccccc23)NC(=O)[C@H](CC(=O)O)NC(=O)[C@H](Cc2ccc(OCC(=O)O)cc2)NC(=O)[C@H](C(C)O)NC(=O)CSC[C@@H](C(=O)N[C@H](CC(N)=O)C(=O)NCCCCCCCCCCC(=O)O)NC(=O)[C@H](CO)NC(=O)[C@H](C(C)C)NC(=O)[C@H](CC2CCCCC2)NC(=O)[C@H](CCN)NC(=O)[C@@H](CC(C)C)NC(=O)[C@H](C)N(C)C1=O (stereo partly drawn) [Example 2209] ({CH2CO}-[Thr(3ξ)]Y(Carboxymethyl)DWV[Bip][Ile(3ξ)][NMeA][dL][Dab][Cha]VSC[dN][Aun]-OH; thioether N-14)	7.81
CCC(C)[C@@H]1NC(=O)[C@H](Cc2ccc(-c3ccccc3)cc2)NC(=O)[C@H](C(C)C)NC(=O)[C@H](Cc2c[nH]c3ccccc23)NC(=O)[C@H](CC(=O)O)NC(=O)[C@H](Cc2ccc(OCC(=O)O)cc2)NC(=O)[C@H](C(C)O)NC(=O)CSC[C@@H](C(=O)N[C@H](CC(N)=O)C(=O)NCCCCCCCCCCC(=O)O)NC(=O)[C@H](CCCCN)NC(=O)[C@H](C(C)C)NC(=O)[C@H](CC2CCCCC2)NC(=O)[C@H](CCN)NC(=O)[C@@H](CC(C)C)NC(=O)[C@H](C)N(C)C1=O (stereo partly drawn) [Example 2210] ({CH2CO}-[Thr(3ξ)]Y(Carboxymethyl)DWV[Bip][Ile(3ξ)][NMeA][dL][Dab][Cha]VKC[dN][Aun]-OH; thioether N-14)	8.00
Cc1cccc(C[C@@H]2NC(=O)[C@H](CC(=O)O)NC(=O)[C@H](Cc3ccc(OCC(=O)O)cc3)NC(=O)[C@H](CCCNC(=N)N)NC(=O)CSC[C@@H](C(=O)N[C@@H](CCN)C(=O)NCCCCCCCCCCC(=O)O)NC(=O)[C@H](C(C)O)NC(=O)[C@H](C(C)C)NC(=O)[C@H](CC3CCCCC3)NC(=O)[C@H](CCN)NC(=O)[C@@H](CC(C)C)NC(=O)[C@H](C)N(C)C(=O)[C@H](CCCNC(N)=O)NC(=O)[C@H](Cc3ccc(-c4ccccc4)cc3)NC(=O)[C@H](C(C)C)NC2=O)c1 (stereo partly drawn) [Example 2211] ({CH2CO}-RY(Carboxymethyl)D[Phe(3-Me)]V[Bip][Cit][NMeA][dL][Dab][Cha]V[Thr(3ξ)]C[Dab][Aun]-OH; thioether N-14)	8.07
Cc1cccc(C[C@@H]2NC(=O)[C@H](CC(=O)O)NC(=O)[C@H](Cc3ccc(OCC(=O)O)cc3)NC(=O)[C@H](CCCNC(=N)N)NC(=O)CSC[C@@H](C(=O)N[C@@H](CCN)C(=O)NCCCCCCCCCCC(=O)O)NC(=O)[C@H](CCCCN)NC(=O)[C@H](C(C)C)NC(=O)[C@H](CC3CCCCC3)NC(=O)[C@H](CCN)NC(=O)[C@@H](CC(C)C)NC(=O)[C@H](C)N(C)C(=O)[C@H](CCCNC(N)=O)NC(=O)[C@H](Cc3ccc(-c4ccccc4)cc3)NC(=O)[C@H](C(C)C)NC2=O)c1 [Example 2212] ({CH2CO}-RY(Carboxymethyl)D[Phe(3-Me)]V[Bip][Cit][NMeA][dL][Dab][Cha]VKC[Dab][Aun]-OH; thioether N-14)	7.79
Cc1cccc(C[C@@H]2NC(=O)[C@H](CC(=O)O)NC(=O)[C@H](Cc3ccc(C(=O)O)cc3)NC(=O)[C@H](Cc3ccc(OCC(=O)O)cc3)NC(=O)CSC[C@@H](C(=O)NCCOCCOCC(=O)NCCCCCCCCCCC(=O)O)NC(=O)[C@H](CCCCO)NC(=O)[C@H](C(C)C)NC(=O)[C@H](CC3CCCCC3)NC(=O)[C@H](CCN)NC(=O)[C@@H](CC(C)C)NC(=O)[C@H](C)N(C)C(=O)[C@H](Cc3ccc(O)cc3)NC(=O)[C@H](Cc3ccc(-c4ccccc4)cc3)NC(=O)[C@H](C(C)C)NC2=O)c1 [Example 2213] ({CH2CO}-Y(Carboxymethyl)[Phe(4-COOH)]D[Phe(3-Me)]V[Bip]Y[NMeA][dL][Dab][Cha]V[X14]C[AEEA][Aun]-OH; thioether N-14)	7.84
